Read-outs that look alike come from different tables or passages of the source.
Tests used:
Type in all cases: binding
PIK4CB = biological target: T1, PIK4CB (Homo sapiens, UniProt Q9UBF8); test: KINOMEscan, PIK4CB; settings: for remaining binding at 1 µM: read-out: % of control at 1 µM; for remaining binding at 10 µM: read-out: % of control at 10 µM
T1 construct: purchased Ambit Biosciences (scanMAXX KINOMEscan)

MAP4K2 = biological target: T2, MAP4K2 (Homo sapiens, UniProt Q12851); test: KINOMEscan, MAP4K2; settings: for remaining binding at 1 µM / remaining binding at 10 µM: kinase MAP4K2; for remaining binding at 1 µM: read-out: % of control at 1 µM; for remaining binding at 10 µM: read-out: % of control at 10 µM
T2 construct: purchased Ambit Biosciences (scanMAXX KINOMEscan)
T2 sequence (Q12851 1-820): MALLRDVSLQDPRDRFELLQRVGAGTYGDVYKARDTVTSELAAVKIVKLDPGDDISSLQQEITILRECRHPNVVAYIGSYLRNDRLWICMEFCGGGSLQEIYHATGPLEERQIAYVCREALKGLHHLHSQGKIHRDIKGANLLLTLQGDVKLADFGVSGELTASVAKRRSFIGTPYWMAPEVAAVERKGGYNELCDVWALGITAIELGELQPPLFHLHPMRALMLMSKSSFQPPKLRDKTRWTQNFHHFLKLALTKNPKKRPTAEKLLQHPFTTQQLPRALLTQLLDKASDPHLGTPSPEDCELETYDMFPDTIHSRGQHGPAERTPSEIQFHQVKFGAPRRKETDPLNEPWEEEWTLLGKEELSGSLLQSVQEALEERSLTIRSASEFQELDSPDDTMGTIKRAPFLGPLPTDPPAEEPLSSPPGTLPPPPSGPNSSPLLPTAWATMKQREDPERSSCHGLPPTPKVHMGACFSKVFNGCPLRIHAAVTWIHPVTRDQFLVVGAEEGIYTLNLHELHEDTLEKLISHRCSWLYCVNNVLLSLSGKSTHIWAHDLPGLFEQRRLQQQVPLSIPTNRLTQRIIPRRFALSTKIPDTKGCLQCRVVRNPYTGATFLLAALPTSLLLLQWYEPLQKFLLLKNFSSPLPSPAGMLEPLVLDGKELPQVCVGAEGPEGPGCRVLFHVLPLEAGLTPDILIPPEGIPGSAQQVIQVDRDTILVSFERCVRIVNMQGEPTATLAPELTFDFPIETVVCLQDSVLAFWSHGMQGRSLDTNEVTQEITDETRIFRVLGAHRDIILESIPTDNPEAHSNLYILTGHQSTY

FLT3 (D835Y mutant) = biological target: T3, FLT3 (D835Y mutant) (Homo sapiens, UniProt P36888, D835Y); test: KINOMEscan, FLT3 D835Y; settings: for remaining binding at 1 µM / remaining binding at 10 µM: FLT3(D835Y); for remaining binding at 1 µM: read-out: % of control at 1 µM; for remaining binding at 10 µM: read-out: % of control at 10 µM
T3 construct: purchased Ambit Biosciences (scanMAXX KINOMEscan)
T3 sequence (P36888 27-993 D835Y): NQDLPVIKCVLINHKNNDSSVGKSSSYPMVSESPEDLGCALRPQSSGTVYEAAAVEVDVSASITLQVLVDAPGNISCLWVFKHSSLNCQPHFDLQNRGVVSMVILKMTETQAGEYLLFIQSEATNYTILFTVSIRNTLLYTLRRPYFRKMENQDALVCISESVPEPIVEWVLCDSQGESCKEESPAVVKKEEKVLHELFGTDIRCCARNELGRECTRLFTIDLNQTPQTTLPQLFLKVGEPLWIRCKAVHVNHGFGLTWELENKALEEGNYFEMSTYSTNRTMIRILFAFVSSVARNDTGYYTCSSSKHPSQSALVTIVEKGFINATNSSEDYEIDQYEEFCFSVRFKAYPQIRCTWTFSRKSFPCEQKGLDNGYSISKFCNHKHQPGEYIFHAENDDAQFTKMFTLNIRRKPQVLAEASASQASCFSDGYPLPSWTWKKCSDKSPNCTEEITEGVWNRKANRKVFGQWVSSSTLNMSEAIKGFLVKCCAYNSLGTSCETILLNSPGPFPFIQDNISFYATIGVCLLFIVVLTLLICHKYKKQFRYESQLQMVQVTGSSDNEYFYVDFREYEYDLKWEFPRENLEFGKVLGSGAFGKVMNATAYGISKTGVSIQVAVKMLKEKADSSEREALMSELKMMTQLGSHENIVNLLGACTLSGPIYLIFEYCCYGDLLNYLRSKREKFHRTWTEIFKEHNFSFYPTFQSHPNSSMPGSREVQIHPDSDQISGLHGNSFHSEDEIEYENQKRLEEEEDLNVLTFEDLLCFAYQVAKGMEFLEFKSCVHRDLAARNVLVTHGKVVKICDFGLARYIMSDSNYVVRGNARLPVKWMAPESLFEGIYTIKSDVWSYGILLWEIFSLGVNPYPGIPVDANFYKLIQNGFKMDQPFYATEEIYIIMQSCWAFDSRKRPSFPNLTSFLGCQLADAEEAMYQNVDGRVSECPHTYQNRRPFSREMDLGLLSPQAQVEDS

ERBB3 = biological target: T4, ERBB3 (Homo sapiens, UniProt P21860); test: KINOMEscan, ERBB3; settings: for remaining binding at 1 µM / remaining binding at 10 µM: ERBB3; for remaining binding at 1 µM: read-out: % of control at 1 µM; for remaining binding at 10 µM: read-out: % of control at 10 µM
T4 construct: purchased Ambit Biosciences (scanMAXX KINOMEscan)

[1] = biological target: T5, catalytic JH1 domain of JAK1 (Homo sapiens, UniProt P23458); test: KINOMEscan, JAK1 JH1 domain; settings: for remaining binding at 1 µM / remaining binding at 10 µM: kinase JAK1(JH1domain-catalytic); for remaining binding at 1 µM: read-out: % of control at 1 µM; for remaining binding at 10 µM: read-out: % of control at 10 µM
T5 construct: the catalytic JH1 domains of JAK1 and JAK2; purchased Ambit Biosciences (scanMAXX KINOMEscan)
T5 sequence (P23458 875-1153 limits assumed): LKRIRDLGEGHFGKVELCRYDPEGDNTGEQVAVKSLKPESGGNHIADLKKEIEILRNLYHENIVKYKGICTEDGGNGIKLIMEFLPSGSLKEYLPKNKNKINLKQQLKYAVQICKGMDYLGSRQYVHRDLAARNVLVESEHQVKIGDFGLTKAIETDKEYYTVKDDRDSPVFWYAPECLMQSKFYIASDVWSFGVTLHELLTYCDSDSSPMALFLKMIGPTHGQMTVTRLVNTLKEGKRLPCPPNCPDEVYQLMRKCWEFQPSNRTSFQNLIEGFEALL

T4 sequence (P21860 20-1342): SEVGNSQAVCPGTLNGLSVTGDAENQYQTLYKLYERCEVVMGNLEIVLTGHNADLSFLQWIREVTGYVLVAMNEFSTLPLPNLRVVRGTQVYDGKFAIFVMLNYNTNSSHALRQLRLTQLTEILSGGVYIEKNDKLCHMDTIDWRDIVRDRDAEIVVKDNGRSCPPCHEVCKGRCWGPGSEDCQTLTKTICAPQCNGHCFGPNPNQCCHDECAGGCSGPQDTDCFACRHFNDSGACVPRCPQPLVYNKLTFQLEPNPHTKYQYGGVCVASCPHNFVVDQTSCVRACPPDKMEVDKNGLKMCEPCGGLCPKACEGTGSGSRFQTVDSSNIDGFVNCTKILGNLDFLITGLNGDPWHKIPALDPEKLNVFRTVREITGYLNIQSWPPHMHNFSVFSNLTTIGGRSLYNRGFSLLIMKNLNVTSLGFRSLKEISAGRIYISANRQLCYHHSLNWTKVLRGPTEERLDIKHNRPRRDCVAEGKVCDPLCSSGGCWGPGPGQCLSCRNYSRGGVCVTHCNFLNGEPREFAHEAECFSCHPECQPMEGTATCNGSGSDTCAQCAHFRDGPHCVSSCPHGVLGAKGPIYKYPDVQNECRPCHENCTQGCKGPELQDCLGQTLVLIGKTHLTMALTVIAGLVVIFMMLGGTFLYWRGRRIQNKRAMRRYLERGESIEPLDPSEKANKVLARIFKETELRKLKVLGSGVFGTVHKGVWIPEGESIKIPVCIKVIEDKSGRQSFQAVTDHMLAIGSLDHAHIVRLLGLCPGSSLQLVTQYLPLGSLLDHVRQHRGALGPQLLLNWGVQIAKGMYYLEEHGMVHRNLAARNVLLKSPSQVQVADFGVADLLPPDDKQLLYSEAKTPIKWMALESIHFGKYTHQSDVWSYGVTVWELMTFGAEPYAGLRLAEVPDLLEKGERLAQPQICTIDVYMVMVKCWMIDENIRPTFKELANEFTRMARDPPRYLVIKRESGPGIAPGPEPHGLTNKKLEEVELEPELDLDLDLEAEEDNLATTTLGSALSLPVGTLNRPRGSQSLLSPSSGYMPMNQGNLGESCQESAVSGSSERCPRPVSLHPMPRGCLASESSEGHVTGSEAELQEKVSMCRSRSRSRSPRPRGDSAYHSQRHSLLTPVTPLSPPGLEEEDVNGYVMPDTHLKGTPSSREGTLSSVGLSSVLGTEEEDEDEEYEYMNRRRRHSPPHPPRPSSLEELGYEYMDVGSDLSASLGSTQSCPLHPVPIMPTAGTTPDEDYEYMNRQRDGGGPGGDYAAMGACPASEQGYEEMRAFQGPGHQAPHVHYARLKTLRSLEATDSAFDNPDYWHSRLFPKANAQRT
T1 sequence (Q9UBF8 whole entry): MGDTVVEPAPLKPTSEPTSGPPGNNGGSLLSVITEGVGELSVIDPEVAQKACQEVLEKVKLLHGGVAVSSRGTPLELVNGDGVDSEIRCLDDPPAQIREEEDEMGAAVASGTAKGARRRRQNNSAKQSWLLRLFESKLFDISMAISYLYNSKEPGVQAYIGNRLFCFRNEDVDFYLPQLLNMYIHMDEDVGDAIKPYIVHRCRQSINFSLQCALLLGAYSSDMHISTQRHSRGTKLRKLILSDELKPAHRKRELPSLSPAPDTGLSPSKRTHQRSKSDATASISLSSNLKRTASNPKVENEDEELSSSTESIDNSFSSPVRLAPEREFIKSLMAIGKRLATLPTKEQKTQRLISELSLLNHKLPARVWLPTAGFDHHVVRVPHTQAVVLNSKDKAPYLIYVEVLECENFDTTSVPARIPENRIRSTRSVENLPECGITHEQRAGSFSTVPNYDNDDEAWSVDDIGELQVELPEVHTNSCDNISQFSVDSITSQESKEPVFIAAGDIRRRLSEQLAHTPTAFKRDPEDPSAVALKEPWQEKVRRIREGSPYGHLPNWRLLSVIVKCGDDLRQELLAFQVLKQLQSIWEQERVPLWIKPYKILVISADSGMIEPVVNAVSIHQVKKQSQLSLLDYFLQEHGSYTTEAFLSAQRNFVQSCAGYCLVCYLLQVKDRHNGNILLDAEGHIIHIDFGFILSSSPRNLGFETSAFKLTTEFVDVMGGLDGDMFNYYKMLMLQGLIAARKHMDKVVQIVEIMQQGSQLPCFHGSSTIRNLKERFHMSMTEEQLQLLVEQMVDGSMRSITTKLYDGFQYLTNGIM

| SMILES | remaining binding at 1 µM (PIK4CB; kinase PIK4CB, 1 µM) [%] | remaining binding at 10 µM (PIK4CB; kinase PIK4CB) [%] | remaining binding at 1 µM (MAP4K2) [%] | remaining binding at 10 µM (MAP4K2) [%] | remaining binding at 1 µM (FLT3 (D835Y mutant)) [%] | remaining binding at 10 µM (FLT3 (D835Y mutant)) [%] | remaining binding at 1 µM (ERBB3) [%] | remaining binding at 10 µM (ERBB3) [%] | remaining binding at 1 µM [1] [%] | remaining binding at 10 µM [1] [%] | remaining binding at 1 µM (PIK4CB) [%] | inhibition at 1 µM (MAP4K2; 1 μM) [%] | inhibition at 1 µM (FLT3 (D835Y mutant); 1 μM) [%] | inhibition at 1 µM (ERBB3; 1 μM) [%] | inhibition at 1 µM ([1]; 1 μM) [%] | off-target binding to PIK4CB (PIK4CB; 1 μM) |
| --- | --- | --- | --- | --- | --- | --- | --- | --- | --- | --- | --- | --- | --- | --- | --- | --- |
| Nc1cc(C(F)(F)F)c(-c2cc(N3CCOCC3)nc(N3CCOCC3)n2)cn1 [Buparlisib] | 86 | 100 | 82 | 100 | 70 | 42 | 100 | 90 | 96 | 100 |  |  |  |  |  |  |
| Cn1c(=O)n(-c2ccc(C(C)(C)C#N)cc2)c2c3cc(-c4cnc5ccccc5c4)ccc3ncc21 [Dactolisib, 2-methyl-2-[4-(3-methyl-2-oxo-8-quinolin-3-yl-2,3-dihydroimidazo[4,5-c]quinolin-1-yl)-phenyl] propionitrile] |  |  | 0.25 |  | 13 |  | 9.2 |  | 12 |  | 64 | > 80 | > 80 | > 80 | > 80 |  |
| COc1ncc(-c2ccc3nccc(-c4ccnnc4)c3c2)cc1NS(=O)(=O)c1ccc(F)cc1F [Omipalisib] | 0.7 |  | 100 |  | 100 |  | 95 |  | 100 |  |  |  |  |  |  | non-selective |
| CS(=O)(=O)N1CCN(Cc2cc3nc(-c4cccc5[nH]ncc45)nc(N4CCOCC4)c3s2)CC1 [Pictilisib, 2-(1H-indazol-4-yl)-6-(4-methanesulfonyl-piperazin-1-ylmethyl)-4-morpholin-4-yl-t hieno[3,2-d]pyrimidine] | 100 | 75 | 100 | 61 |  | 5.4 | 100 | 96 | 100 | 100 |  |  |  |  |  |  |
| FC(F)c1nc2ccccc2n1-c1nc(N2CCOCC2)nc(N2CCOCC2)n1 [ZSTK474, 2-(difluoromethyl)-1-[4,6-di(4-morpholinyl)-1,3,5-triazin-2-yl]-1H-benzimidazole] | 84 |  | 85 |  | 84 |  | 24 |  | 98 |  |  |  |  |  |  |  |
